According to paper PMC8305076, “Comprehensive Evaluation of Biological Effects of Pentathiepins on Various Human Cancer Cell Lines and Insights into Their Mode of Action” (International Journal of Molecular Sciences, 2021):
Like-named read-outs stand apart in the source and are kept apart here.

Legend:
YAPC = experiment: MTT cell viability assay; type: cell-based; settings: Homo sapiens; for IC50: 48 h; for IC90: calculated via GraphPad QuickCalcs from MTT IC50 and slope factor
Procedure: (§1) Distinct MTT cell viability and crystal violet cell proliferation assays were performed to assess the cytotoxicity of the compounds 1–6 on 14 human cancer cell lines. In the viability assay, cells with intact mitochondria and thus active dehydrogenases are competent to convert MTT to the corresponding insoluble formazan. The formazan can be photometrically detected after solubilization and allows for indirect conclusions about the viability of the cells as an IC50 value. In the crystal violet assay, cells are stained by the binding of the dye to the chromatin, thus allowing for a quantification of biomass that remains adherent after a treatment in comparison with a control after a specific time. Potency is defined as the growth inhibitory concentration 50% (GI50).
(§2) In addition to performing the cell viability assay under normoxia (19% atmospheric oxygen), incubations were also conducted under hypoxic conditions, i.e., atmospheric oxygen levels of 1% during the treatment for 48 h. Hypoxia is a favorable condition of the tumor microenvironment that is connected with poor outcome. Therefore, the low oxygen condition mimics better the tumor environment. The biological effect of the pentathiepins under this condition provides insight into their dependency for oxygen, which has been postulated a key component in the proposed mechanism of action (Figure 3). Consistent with the proposed mechanism of action for five of the compounds, potency decreased under hypoxic conditions; in fact for 6, the half-maximal inhibitory concentration exceeded the highest tested concentration of 10 µM in four cell lines (Figure 6, Table S3). […] In contrast to the other compounds, in some cell lines, the cytotoxic effects of 1 were more pronounced under oxygen-reduced incubation conditions (Figure 6), indicating a tangential role of oxygen availability for this pentathiepin. Especially for the breast cancer cell line MCF-7, the cytotoxicity increased substantially, indicated by a decrease of the IC50 from >10.0 µM to about 1.0 µM.
(§3) The effect of the pentathiepins on the viability of the cell lines was assessed via an MTT assay, performed as previously described. Healthy and viable cells convert the yellow soluble 3-(4,5-dimethylthiazol-2-yl)-2,5-diphenyltetrazolium bromide to the insoluble purple corresponding formazan, which can be spectrophotometrically measured. For this assay, 5000 cells (1 250 for LCLC-103H) in 0.1 mL of medium were seeded per well of a 96-well plate and incubated at standard conditions for 24 h prior to treatment. A serial dilution of the test compounds was prepared in medium, covering final concentrations from 10.0 to 0.04 µM, and 0.1 mL of the working solution was added to each well in triplicate. After 48 h, 20 µL of a 2.5 mg/mL MTT in PBS solution was pipetted into each well and further incubated for 4 h at standard conditions. Thereafter, medium was replaced with 50 µL DMSO, and the plates were put on a shaker for 5 min and subsequently read at λ = 570 nm, with a SpectraMax 384plus (Molecular Devices, Sunnyvale, CA, USA). The cell viabilities of the treatment conditions were calculated in relation to a solvent control sample. The absolute IC50 was calculated via nonlinear regression followed by interpolation of the dose–response graphs in Prism 7 (GraphPad, San Diego, CA, USA). The IC90 was derived from the IC50 by using the slope factor of the dose–response graph with the tool QuickCalcs from GraphPad (GraphPad Software, San Diego, CA, USA).

A-427 = experiment: MTT cell viability assay; type: cell-based; settings: Homo sapiens, 48 h
Procedure: as §1, §2, §3

HAP-1.KO.GPx1 = experiment: MTT cell viability assay; type: cell-based; settings: Homo sapiens; for IC50: 48 h; for IC90: calculated via GraphPad QuickCalcs from MTT IC50 and slope factor
Procedure: as §1, §2, §3

A2780 = experiment: MTT cell viability assay; type: cell-based; settings: Homo sapiens; for IC50: 48 h; for IC90: calculated via GraphPad QuickCalcs from MTT IC50 and slope factor
Procedure: as §1, §2, §3

RT-4 = experiment: MTT cell viability assay; type: cell-based; settings: Homo sapiens, 48 h
Procedure: as §1, §2, §3

PATU-8902 = experiment: MTT cell viability assay; type: cell-based; settings: Homo sapiens; for IC50: 48 h; for IC90: calculated via GraphPad QuickCalcs from MTT IC50 and slope factor
Procedure: as §1, §2, §3

Kyse-70 = experiment: MTT cell viability assay; type: cell-based; settings: Homo sapiens, 48 h
Procedure: as §1, §2, §3

DanG = experiment: MTT cell viability assay; type: cell-based; settings: Homo sapiens; for IC50: 48 h; for IC90: calculated via GraphPad QuickCalcs from MTT IC50 and slope factor
Procedure: as §1, §2, §3

LCLC-103H = experiment: MTT cell viability assay; type: cell-based; settings: Homo sapiens, 48 h
Procedure: as §1, §2, §3

RT-112 = experiment: MTT cell viability assay; type: cell-based; settings: Homo sapiens, 48 h
Procedure: as §1, §2, §3

HAP-1 = experiment: MTT cell viability assay; type: cell-based; settings: Homo sapiens; for IC50: HAP1, 48 h; for IC90: HAP1, calculated via GraphPad QuickCalcs from MTT IC50 and slope factor
Procedure: as §1, §2, §3

A2780cis = experiment: MTT cell viability assay; type: cell-based; settings: Homo sapiens, 48 h
Procedure: as §1, §2, §3

Siso = experiment: MTT cell viability assay; type: cell-based; settings: Homo sapiens; for IC50: 48 h; for IC90: calculated via GraphPad QuickCalcs from MTT IC50 and slope factor
Procedure: as §1, §2, §3

[1] = tested on: HAP-1, HAP-1.KO.GPx1, Siso and A2780 cells; experiment: cellular morphology after 24 h; type: cell-based, human; set-up: key: no impact (0); weak impact (+); strong impact (++); settings: summary grade
Source text: All new pentathiepins induced apoptosis, although to different extents and in a cell line-dependent manner. […] In the corresponding GPx1-knockout cell line, the effect of doxorubicin was higher (about 50%), whereas only two of the pentathiepins induced apoptosis, namely, 3 and 5. The fractions of early apoptotic cells were 34 and 15%, respectively, and the population of late apoptotic cells 6% for 3. In the ovarian carcinoma cell line A2780 the overall effects were marginal, but all compounds except 6 increased the percentage of early apoptotic cells to 6–14%, with 3 resulting in the highest amount. In the Siso cell line, pentathiepin 3 increased both the number of early and late apoptotic cells to about 20%, which exceeded the effects of doxorubicine (0.5 µM). These findings were further corroborated by the observation of morphological features such as membrane blebbing and cell shrinkage as particular hallmarks of apoptosis (Figure S51).
Figure S51: Representative images of cellular morphology after an incubation for 24 h with the respective pentathiepins 1-6 (IC90) or a corresponding volume of DMF as negative control in HAP-1, HAP-1.KO.GPx1, Siso and A2780 cells. Arrows denote membrane blebbing, dashed arrows label cell shrinkage.
(1 picture or pasted object on this page, not shown here)

[2] = hypoxic (1% O2), read-out: IC50 MTT-H mean
[3] = normoxic (19% O2), read-out: IC50 MTT-N mean

| Compound | IC50 (YAPC; [2]) | IC50 (YAPC; [3]) | IC90 (YAPC) | IC50 (A-427; [2]) | IC50 (A-427; [3]) | IC50 (HAP-1.KO.GPx1; [2]) | IC50 (HAP-1.KO.GPx1; [3]) | IC90 (HAP-1.KO.GPx1) | IC50 (A2780; [2]) | IC50 (A2780; [3]) | IC90 (A2780) | IC50 (RT-4; [2]) | IC50 (RT-4; [3]) | IC50 (PATU-8902; [2]) | IC50 (PATU-8902; [3]) | IC90 (PATU-8902) | IC50 (Kyse-70; [2]) | IC50 (Kyse-70; [3]) | IC50 (DanG; [2]) | IC50 (DanG; [3]) | other results |
| --- | --- | --- | --- | --- | --- | --- | --- | --- | --- | --- | --- | --- | --- | --- | --- | --- | --- | --- | --- | --- | --- |
| CCOc1c2c(c3cnc4[nH]c(-c5ccc(OC)cc5)cc4n13)SSSSS2 [Compound 1, 11-Ethoxy-2-(4-methoxyphenyl)-3H-[1,2,3,4,5]pentathiepino[6′,7′:3,4]pyrrolo[1,2-a]pyrrolo[2,3-e]pyrazine] | 360 nM | 780 nM | 2470 nM | 285 nM | 349 nM | 428 nM | 358 nM | 550 nM | 443 nM | 692 nM | 1870 nM | 522 nM | 1930 nM | 543 nM | 579 nM | 1220 nM | 532 nM | 477 nM | 478 nM | 1110 nM | IC90 (DanG): 1710 nM; IC50 (LCLC-103H; [2]): 552 nM; IC50 (LCLC-103H; [3]): 1420 nM; IC50 (RT-112; [2]): 306 nM; IC50 (RT-112; [3]): 399 nM; IC50 (HAP-1; [2]): 384 nM; IC50 (HAP-1; [3]): 398 nM; IC90 (HAP-1): 710 nM; IC50 (A2780cis; [2]): 411 nM; IC50 (A2780cis; [3]): 410 nM; IC50 (Siso; [2]): 602 nM; IC50 (Siso; [3]): 414 nM; IC90 (Siso): 770 nM; Morphological changes [1]: 0 |
| CCOc1c2c(c3ccc(C(=O)N4CCCCC4)cn13)SSSSS2 [Compound 2, (6-Ethoxy-[1,2,3,4,5]pentathiepino[6,7-a]indolizin-9-yl)(piperidinyl)methanone] | 2230 nM | 1550 nM | 4260 nM | 1080 nM | 1460 nM | 1190 nM | 644 nM | 1200 nM | 804 nM | 430 nM | 1000 nM | 5900 nM | 1600 nM | 3150 nM | 1720 nM | 6520 nM | 2100 nM | 1580 nM | 4350 nM | 1990 nM | IC90 (DanG): 3060 nM; IC50 (LCLC-103H; [2]): 1540 nM; IC50 (LCLC-103H; [3]): 1360 nM; IC50 (RT-112; [2]): 1720 nM; IC50 (RT-112; [3]): 1340 nM; IC50 (HAP-1; [2]): 847 nM; IC50 (HAP-1; [3]): 600 nM; IC90 (HAP-1): 1180 nM; IC50 (A2780cis; [2]): 637 nM; IC50 (A2780cis; [3]): 652 nM; IC50 (Siso; [2]): 2960 nM; IC50 (Siso; [3]): 1380 nM; IC90 (Siso): 2700 nM; Morphological changes [1]: + |
